Data on 16 molecules can be found in patent US20250092014A1, “COMPOUNDS AND METHODS OF ACTIVATING LIPOPROTEIN LIPASE” (Metrea Biosciences, Inc., priority 2021, published 2025).

Each structure is given as a SMILES string. Some results are limits rather than exact numbers.

In one assay the target is T1, LPL:sGPIHBPI complex (Homo sapiens, UniProt P06858).
T1 sequence (P06858 28-475): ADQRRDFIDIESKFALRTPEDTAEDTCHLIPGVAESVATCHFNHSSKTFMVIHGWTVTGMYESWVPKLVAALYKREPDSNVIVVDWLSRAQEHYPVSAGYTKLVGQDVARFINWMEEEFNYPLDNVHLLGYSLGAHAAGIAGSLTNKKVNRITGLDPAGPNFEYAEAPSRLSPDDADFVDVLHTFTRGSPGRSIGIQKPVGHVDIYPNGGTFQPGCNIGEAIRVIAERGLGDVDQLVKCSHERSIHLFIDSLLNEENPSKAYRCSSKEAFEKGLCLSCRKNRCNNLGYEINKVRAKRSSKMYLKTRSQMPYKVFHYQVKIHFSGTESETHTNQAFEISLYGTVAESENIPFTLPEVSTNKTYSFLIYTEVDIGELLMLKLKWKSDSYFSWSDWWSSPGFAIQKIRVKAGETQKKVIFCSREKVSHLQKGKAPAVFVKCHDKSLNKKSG
T1 sequence (Q8IV16 21-151 partner limits assumed): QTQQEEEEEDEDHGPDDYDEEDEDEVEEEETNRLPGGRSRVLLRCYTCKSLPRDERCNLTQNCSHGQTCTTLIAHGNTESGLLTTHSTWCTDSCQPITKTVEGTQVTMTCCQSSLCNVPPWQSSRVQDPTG
Description: VLDL assay (LPL:sGPIHBP1 pre-incubated with ANGPTL4, VLDL substrate, Amplex Red readout). In kind it is biochemical. The note with it: read-out: VLDL qAC50. As for the experimental part: The assay was performed in black I536-well plates using purified proteins. To identify compounds that stimulate LPL activity either by directly activating LPL or by inhibiting the antagonist ANGPTL4, the LPL:sGPIHBPI complex was pre-incubated with ANGPTL4 to decrease LPL activity by 80%. After a 60 min pre-incubation, the coupled enzyme system supplemented with Amplex Red reagent was added. The enzymatic reaction was started by adding the VLDL substrate. 120 min after VLDL addition, the reaction was stopped using SDS and the fluorescence intensity was measured.
40 or 45 nl of compound solution in 100% DMSO were placed in test plate. Then LPL:sGPIHBPI was added to all wells (diluted in assay buffer to 80 nM; 1 μl/well). This was followed by an addition of ANGPTL4 to compounds and neutral controls (diluted in assay buffer to 84 nM; 1 μl/well). The assay buffer was added to stimulator control (1 μl/well). Then the plates were centrifuged and pre-incubated 60 min at RT. A NEFA (1:2 diluted in PBS) supplemented with Amplex Red (40 μM was further added to all wells (1 μl/well). The reaction was then started by adding substrate to all wells (diluted in VLDL buffer to 16 Vg/ml, 1 μl/well). The plates were further centrifuged (800 rpm for 1 my) and incubated 120 m at RT (=reaction time). The reaction was then by adding SDS to all wells (diluted in water to 2.5%, 2 μl/well) and further incubated 30 mi at RT. The fluorescence intensity (ex 540 nm/em 590 nm) was measured on a Pherastar (BMG) using 20 flashes.

A further assay concerns C57BL/6 mice. Put plainly: Oral fat tolerance test (postprandial triglyceridaemia after olive oil bolus). The conditions noted are these: overnight-fasted C57BL/6 mice, compound IP 1 h before 10 mL/kg olive oil, bled at 1, 2 and 3.5 h. In kind it is in vivo. On the procedure:
To examine to effects of test compounds on postprandial triglycerdemia, 5-7 week old C57BL/6 mice were fasted overnight (18 hours) on non-nutritive bedding (Alpha-Dri). Following the overnight fast, the mice are bled via retro-orbital sinus (25 μL) using microcapillaries (t-1 hr sample). The LPL activator test compound was then administered intraperitoneally (IP) in a dose volume of 10 ml/kg. One hour later the mice were bled for the t=0 timepoint. The mice were then immediately dosed with a 10 mL/kg oral bolus of olive oil. The mice were subsequently bled at 1-, 2-, and 3.5-hours post-olive oil administration.
Whole blood samples were collected into tubes containing 0.125% EDTA solution in saline. Diluted plasma samples were analyzed for triglyceride levels using Infinity Triglyceride reagent (Thermo) on a microtiter plate. Briefly, 10 μL of diluted sample was added the plate. 200 μL of the reagent was added and the plate was incubated for 10 minutes at 37° C. The plate was then read at 550 nm on a Molecular Devices M5 Spectrophotometer (San Jose, CA). The concentration of triglycerides in the sample was determined using a standard curve made using a dilution of triglyceride standard (Sigma-Aldrich, St. Louis, MO) using the Softmax software from Molecular Devices. All graphing and subsequent area under-the-curve and statistical analysis (Student's t Test) is performed using GraphPad Prism (version 8.0, GraphPad Software, Inc., San Diego, CA).

The target of assay [1] is T2, LPL (native bovine milk protein) inactivated by ANGPTL4 (Bos taurus, UniProt P11151).
T2 construct: from tissue; host or cells: bovine milk (LPL); E. coli (GST-ANGPTL4)
T2 sequence (P11151 29-478): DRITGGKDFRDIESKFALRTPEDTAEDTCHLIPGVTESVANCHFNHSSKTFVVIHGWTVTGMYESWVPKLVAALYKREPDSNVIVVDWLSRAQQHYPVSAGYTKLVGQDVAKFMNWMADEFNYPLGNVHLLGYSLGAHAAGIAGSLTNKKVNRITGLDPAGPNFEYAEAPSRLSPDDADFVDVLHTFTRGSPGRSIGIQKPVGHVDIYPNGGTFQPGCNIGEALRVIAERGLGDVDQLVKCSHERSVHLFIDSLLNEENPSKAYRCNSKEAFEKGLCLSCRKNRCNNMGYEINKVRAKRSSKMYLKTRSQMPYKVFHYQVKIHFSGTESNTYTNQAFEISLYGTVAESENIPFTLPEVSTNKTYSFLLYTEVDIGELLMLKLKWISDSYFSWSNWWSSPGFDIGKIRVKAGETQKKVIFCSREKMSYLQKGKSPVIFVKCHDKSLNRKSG
Put plainly: LPL ANGPTL4 protection assay (LPL fluorescence assay, resorufin butyrate substrate). Format: biochemical. The note with it: LPL activation activity, LPL 2.5 nM, ANGPTL4 20 nM. As for the experimental part:
LPL is inactivated by angiopoietin-like 4 (ANGPTL4). Compounds of the present disclosure were for activity using the following protection assay. Briefly, the assay was performed in a black opaque 96-well microtiter plate with final volume of 100 μL using a buffer consisting of 50 mM HEPES (pH 7.2), 150 mM NaCl and 0.03% Triton X-100. Compounds were prepared as 10 mM stocks in DMSO, with subsequent serial dilutions performed in DMSO. Two microliters of test compounds were added to the microtiter plate, followed by 49-PL of LPL (native bovine milk protein affinity purified using heparin-affinity chromatography) in assay buffer. The plate contents were mixed using an orbital shaker and allowed to incubate for 5 minutes at room temperature. The enzymatic assay was initiated by the addition of a mixture of 49 μL of 50 μM resorufin butyrate (Santa Cruz #sc-208302; prepared from a 10 mM DMSO stock) and ANGPTL4 (N-terminal GST construct consisting of residues 26-164 expressed in E. coli) in assay buffer. The final concentrations of LPL and ANGPTL4 were 2.5 nM and 20 nM, respectively. The assay was allowed to proceed at 30° C. for 25 minutes with kinetic monitoring (Ex560/Em585) followed by an endpoint reading which was used for analysis.
Data was analyzed in Graphpad Prism (version 6.0, GraphPad Software, Inc., San Diego, CA) using a variable slope four parameter fit of the equation:
Y=Bottom+(Top-Bottom)/(1+10^((Log EC50−X)*HillSlope)),
where X is the concentration of test compound, Y corresponds to the amount of product expressed in relative fluorescence units, and Top and Bottom refer to the plateaus of the curve. Percent activation (protection) of test compound was calculated relative to zero effect wells (ZEW; LPL, ANGPTL4 and substrate) and maximum effect wells (MEW; LPL plus substrate): ((test well−ZEW)/(MEW−ZEW))*100.

With `O=C(O)Cc1cccc(Cl)c1NC(=O)c1ccc(N2CCCCC2)c(NC(=O)c2nn(CC(F)(F)F)c3ccccc23)c1` [Compound 25, 2-(3-chloro-2-(4-(piperidin-1-yl)-3-(1-(2,2,2-trifluoroethyl)-1H-indazole-3-carboxamido)benzamido)phenyl) acetic acid], the EC50 at LPL:sGPIHBPI complex is 5 µM.

In the case of `O=C(O)Cc1cc(F)ccc1NC(=O)c1ccc(N2CCCCC2)c(NC(=O)c2nn(CC(F)(F)F)c3ccccc23)n1` [Compound 45, 2-(5-fluoro-2-(5-(piperidin-1-yl)-6-(1-(2,2,2-trifluoroethyl)-1H-indazole-3-carboxamido)picolinamido)phenyl)acetic acid], the EC50 at LPL:sGPIHBPI complex is greater than 25 µM.

In the case of `O=C(O)Cc1cc(F)ccc1NC(=O)c1ccc(N2CCCCC2)c(NS(=O)(=O)c2nn(CC(F)(F)F)c3ccccc23)c1` [Compound 114, 2-(5-fluoro-2-(4-(piperidin-1-yl)-3-((1-(2,2,2-trifluoroethyl)-1H-indazole)-3-sulfonamido)benzamido)phenyl)acetic acid], at LPL:sGPIHBPI complex, the EC50 was greater than 25 µM.

`O=C(O)Cc1cc(F)ccc1NC(=O)c1ccc(N2CCCCC2)c(NC(=O)c2nn(CCN3CCOCC3)c3ccccc23)c1` [Compound 120, 2-(5-fluoro-2-(3-(1-(2-morpholinoethyl)-1H-indazole-3-carboxamido)-4-(piperidin-1-yl)benzamido)phenyl)acetic acid]: at LPL:sGPIHBPI complex, the EC50 was greater than 25 µM.

`Cc1nc(Cn2nc(C(=O)Nc3cc(C(=O)Nc4ccc(F)cc4CC(=O)O)ccc3N3CCCCC3)c3ccccc32)no1` [Compound 125, 2-(5-fluoro-2-(3-(1-((5-methyl-1,2,4-oxadiazol-3-yl)methyl)-1H-indazole-3-carboxamido)-4-(piperidin-1-yl)benzamido)phenyl)acetic acid]: on LPL:sGPIHBPI complex, the EC50 is 6.4 µM.

Consider `O=C(O)Cc1cc(F)ccc1NC(=O)c1ccc(N2CCCCC2)c(NC(=O)Nc2nn(CC(F)(F)F)c3ccccc23)c1` [Compound 129, 2-(5-fluoro-2-(4-(piperidin-1-yl)-3-(3-(1-(2,2,2-trifluoroethyl)-1H-indazol-3-yl)ureido)benzamido)phenyl)acetic acid], for which, on LPL:sGPIHBPI complex, the EC50 worked out at 3.3 µM.

Regarding `O=C(O)Cc1cc(F)ccc1NC(=O)c1ccc(N2CCCCC2)c(NC(=O)c2nn(CC3COCCO3)c3ccccc23)c1` (centres unmarked) [Compound 132, 2-(2-(3-(1-((1,4-dioxan-2-yl)methyl)-1H-indazole-3-carboxamido)-4-(piperidin-1-yl)benzamido)-5-fluorophenyl)acetic acid], the EC50 at LPL:sGPIHBPI complex came to 7.4 µM.

Turning to `Cc1ccc(NC(=O)c2cc(N3Cc4cc(-c5nnn[nH]5)ccc4C3=O)ccc2N2CCCCC2)cc1` [Compound 170, 5-(1-oxo-5-(1H-tetrazol-5-yl)isoindolin-2-yl)-2-(piperidin-1-yl)-N-(p-tolyl)benzamide], the “hypertriglyceridemia response to oral olive oil gavage (plasma triglycerides)” value (“hypertriglyceridemia response” below) in the assay with C57BL/6 mice is “blunts hypertriglyceridemia response in a dose-dependent fashion”. For the same molecule, the EC50 in assay [1] was determined as 7.98 µM.

For the molecule `CCn1nc(C(=O)Nc2cc(C(=O)Nc3ccccc3CC(=O)NS(C)(=O)=O)ccc2N2CCCCC2)c2ccccc21` [Compound 172, 1-ethyl-N-(5-((2-(2-(methylsulfonamido)-2-oxoethyl)phenyl)carbamoyl)-2-(piperidin-1-yl)phenyl)-1H-indazole-3-carboxamide], the “hypertriglyceridemia response” value in the assay with C57BL/6 mice is recorded as “blunts hypertriglyceridemia response in a dose-dependent fashion”. Further, the EC50 in assay [1] stood at 7.5 µM.

`Cn1c(C(=O)Nc2cc(C(=O)Nc3ccccc3CC(=O)O)ccc2N2CCCCC2)cc2ccccc21` [Compound 173, 2-(2-(3-(1-methyl-1H-indole-2-carboxamido)-4-(piperidin-1-yl)benzamido)phenyl)acetic acid]: the “hypertriglyceridemia response” value in the assay with C57BL/6 mice is “blunts hypertriglyceridemia response in a dose-dependent fashion”. This molecule also gave an EC50 in assay [1] of 5.85 µM.

Regarding `Cn1nc(C(=O)Nc2cc(C(=O)Nc3ccccc3CC(=O)O)ccc2N2CCCCC2)c2ccccc21` [Compound 174, 2-(2-(3-(1-methyl-1H-indazole-3-carboxamido)-4-(piperidin-1-yl)benzamido)phenyl)acetic acid], the “hypertriglyceridemia response” value with C57BL/6 mice was “blunts hypertriglyceridemia response in a dose-dependent fashion”. This molecule also gave an EC50 in assay [1] of 3.99 µM.

As to `O=C(O)Cc1cc(F)ccc1NC(=O)c1ccc(N2CCCOCC2)c(NC(=O)c2nn(CC(F)(F)F)c3ccccc23)c1` [Example 63], the EC50 on LPL:sGPIHBPI complex is 10 µM.

`CC1CCN(c2ccc(C(=O)Nc3ccc(F)cc3CC(=O)O)cc2NC(=O)c2nn(CC(F)(F)F)c3ccccc23)CC1` [Example 64]: the EC50 on LPL:sGPIHBPI complex came to 1.2 µM.

As for `CC1CCCCN1c1ccc(C(=O)Nc2ccc(F)cc2CC(=O)O)cc1NC(=O)c1nn(CC(F)(F)F)c2ccccc12` (centres unmarked) [Example 67], the EC50 at LPL:sGPIHBPI complex was determined as 2.5 µM.

On to `CCC1CCCCN1c1ccc(C(=O)Nc2ccc(F)cc2CC(=O)O)cc1NC(=O)c1nn(CC(F)(F)F)c2ccccc12` (centres unmarked) [Example 72], for which, at LPL:sGPIHBPI complex, the EC50 amounted to 2.7 µM.

Regarding `CC1CCCN(c2ccc(C(=O)Nc3ccc(F)cc3CC(=O)O)cc2NC(=O)c2nn(CC(F)(F)F)c3ccccc23)C1` (centres unmarked) [Example 73], the EC50 on LPL:sGPIHBPI complex is 2.2 µM.
